Test results reported in PMC10463376, “Design, synthesis, in vitro anticancer, molecular docking and SAR studies of new series of pyrrolo[2,3-d]pyrimidine derivatives” (BMC Chemistry, 2023).
“Also recorded” adds a separate entry of the source.

Assays:
Format in all cases: cell-based, human
Casp-3 = assay: RT-qPCR Casp-3 mRNA in A549
Procedure: (§1) All of the extractions were conducted on ice with ice-cold reagents. Total RNA from the different cell lines was isolated using Trizol (Invitrogen; Life Technologies, USA) according to the method of Sthoeger et al.. The 260:280 ratios were measured to determine RNA quality after the isolation method was completed according to the manufacturer’s instructions. A high-capacity cDNA reverse transcription kit was used to produce complementary DNA (cDNA) (Applied Biosystems, USA). […] The relative gene expression method (i.e., ΔΔCT) was used to analyze the real-time PCR data, as explained in Applied Biosystem User Bulletin No. 2. Each sample and gene were normalized using the β-actin gene.

BAX [1] = assay: RT-qPCR BAX mRNA in A549; conditions: A549, vs negative control
Procedure: as §1

Bcl-2 = assay: RT-qPCR Bcl-2 mRNA in A549; conditions: A549, vs negative control
Procedure: as §1

DR4 [2] = assay: RT-qPCR DR4 mRNA in A549
Procedure: as §1

BAX [3] = assay: ELISA BAX in A549 cells; conditions: control 5.84
From the text: Elisa assay was used to determine the concentrations of Human caspases-3, -8, Bax, and Bcl2 in PACA2- and A549-treated cells. Also, the concentrations of caspase-8, Bax, and Bcl2 in MCF7-treated cells were detected. The procedures were followed up according to the instructions described in the following kits; Invitrogen human Caspase-3 Elisa Kit, Catalog KHO1091, DRG® human Caspase-8 ELISA Kit, Catalog (EIA-4863), Human Bax ELISA Kit (ab199080) and Human Bcl-2 ELISA Kit (ab119506) respectively. Shortly, the protocol described in the above kits was as followed; at the beginning, all the reagents, samples and standards were prepared. 100 μl of samples or standard were micro pipetted to each well of micro-well strip and kept at room temperature for 2 h. After washing the micro-well strips three times with washing buffer, the prepared antibody (anti-rabbit-IgG-HRP) at a concentration of 100 μl was added to each well at room temperature for 1 h. Then, the micro-well strips were washed again three times. Afterward, the prepared tetramethyl-benzidine (TMB) solution (100 μl) was added to the micro-well strips and kept for 10 min. […] The absorbance of all samples was measured at a wavelength of 460 nm and compared to that of the standard. Curve fitting software was used to plot a standard curve and the concentrations for the unknown samples were measured from the standard curve.

P53 [4] = assay: RT-qPCR P53 mRNA in A549; conditions: A549, vs negative control
Procedure: as §1

MCF7 cells = assay: Flow cytometric cell cycle analysis (PI), MCF7; conditions: MCF7, 24 h, IC50 concentration; for cell cycle arrest (phase): vs untreated control; for percentage of cells in the G0/G1 phase: control 11.43%
Procedure: Herein, the negative control was the untreated MCF7 cells and Doxorubicin was used as a positive control. Firstly, after the treatment time of 24 h, MCF7 cells were centrifuged at 1000 rpm for 5 min at 4 °C. The supernatant was discarded and the cells pellet were washed in phosphate-buffered saline (PBS). Then, the cells pellet were centrifuged at 1000 rpm for another 5 min. Afterward, the cells were collected in a single-cell suspension and maintained in 70% ethanol overnight on ice. Then, cells were washed with 1 ml PBS. At last, 200 µl 1 × propidium iodide (PI) mixture was added to the cells pellet in the dark at room temperature for 30 min. Then, the DNA content was analyzed by subjecting the cells to an Epics XL-MCL flow cytometer (Beckman Coulter, Miami, FL). The distribution of cells at different phases of the cell cycle was determined by Multi-cycle software (Phoenix Flow Systems, San Diego, CA).

P53 [5] = assay: RT-qPCR P53 mRNA in Paca2; conditions: 17 vs both Dox. and negative control
Procedure: as §1

DR4 [6] = assay: RT-qPCR DR4 mRNA in Paca2; conditions: 17 vs both Dox. and negative control
Procedure: as §1

IL-8 = assay: RT-qPCR IL-8 mRNA in Paca2; conditions: 17 vs both Dox. and negative control
Procedure: as §1

[7] = system: pancreatic cell line (Paca2); assay: DNA fragmentation assay, Paca2; conditions: Paca2, IC50, 24 h, vs negative control (P < 0.01); 17 higher than Dox.
Procedure: The DNA fragmentation assay in a pancreatic cell line (Paca2), breast cancer cell lines (MCF-7) and lung cell line (A549) was performed in concordance with the premises established by Yawata with some modifications. Briefly, after 24 h of exposure of Paca2, MCF-7 and A549 cancer cell lines to the prepared compounds in different Petri dishes (60 × 15 mm, Greiner), the cells were suspended and homogenized in 1 ml of medium and then centrifuged for 10 min at 900 rpm. The genomic DNA was extracted as shown in Yawata. About 1 × 10^6 cells of each tested cancer cell line were treated with the IC50 values of the tested compounds. All the cells were collected via trypsinization and washed with Dulbecco`s Phosphate Buffered Saline. Then, the cells were treated with the lysis buffer containing 5 mM ethylenediaminetetraacetic acid (EDTA), 10 mM Tris (pH 7.4), 0.5% Triton X-100 and 150 mM NaCl for 35 min on ice. […] Finally, the percentage of fragmented DNA was determined by performing gel electrophoresis using 2% agarose gel containing 0.1 μg/ml ethidium bromide.
Pancreatic cancer cell line (Paca2), breast cancer cell line (MCF-7) and lung cancer cell line (A549) were used to determine the percentage of DNA fragmentation after the treatment with IC50 of the tested compounds. […] The percentage of fragmented DNA was measured from the absorbance reading at 600 nm wavelength using the following formula: […]

BAX [8] = assay: RT-qPCR BAX mRNA in Paca2; conditions: 17 vs both Dox. and negative control
Procedure: as §1

Compound | Casp-3 mRNA level (Casp-3) | BAX mRNA level (BAX [1]) | Bcl-2 mRNA level (Bcl-2) | DR4 mRNA level (DR4 [2]) | BAX level (ELISA) (BAX [3]) | P53 mRNA level (P53 [4]) | cell cycle arrest (phase) (MCF7 cells) | percentage of cells in the G0/G1 phase (MCF7 cells) | P53 mRNA level (P53 [5]) | DR4 mRNA level (DR4 [6]) | IL-8 mRNA level (IL-8) | DNA fragmentation rate [7] | BAX mRNA level (BAX [8])
COc1ccc(-c2c(Cl)n(-c3ccc(Cl)cc3Cl)c3ncnc(Cl)c23)cc1OC [Compound 4b, 4,6-dichloro-7-(2,4-dichlorophenyl)-5-(3,4-dimethoxyphenyl)-7H-pyrrolo[2,3-d]pyrimidine] | up-regulated | up-regulated | down-regulated | up-regulated | 14.83 pg/mL | up-regulated | – | – | – | – | – | – | –
NNc1ncnc2c1c(-c1ccc(Br)cc1)c(Cl)n2-c1ccc(Cl)cc1Cl [Compound 14a, 5-(4-bromophenyl)-6-chloro-7-(2,4-dichlorophenyl)-4-hydrazineyl-7H-pyrrolo[2,3-d]pyrimidine] | – | – | – | – | – | – | G1 and S phases; also recorded: G1/S phase | 68.60% | – | – | – | – | –
COc1ccc(-c2c(Cl)n(-c3ccc(Cl)cc3Cl)c3ncnc(NN)c23)cc1OC [Compound 14b, 6-chloro-7-(2,4-dichlorophenyl)-5-(3,4-dimethoxyphenyl)-4-hydrazineyl-7H-pyrrolo[2,3-d]pyrimidine] | – | – | – | – | – | – | G1 and S phases; also recorded: G1/S phase | 85.98% | – | – | – | – | –
CN1CCN(c2nc(C(Cl)(Cl)Cl)nc3c2c(-c2ccc(Br)cc2)c(Cl)n3-c2ccc(Cl)cc2Cl)CC1 [Compound 17, 5-(4-bromophenyl)-6-chloro-7-(2,4-dichlorophenyl)-4-(4-methylpiperazin-1-yl)-2-(trichloromethyl)-7H-pyrrolo[2,3-d]pyrimidine] | – | – | – | – | – | – | – | – | up-regulated | up-regulated | lowered | increased significantly | up-regulated
COc1cccc2c1C(=O)c1c(O)c3c(c(O)c1C2=O)C[C@@](O)(C(=O)CO)C[C@@H]3O[C@H]1C[C@H](N)[C@H](O)[C@H](C)O1 [Dox, Doxorubicin, reference compound] | up-regulated | up-regulated | down-regulated | up-regulated | – | up-regulated | – | – | no significant difference | no significant difference | no significant difference | increased significantly | no significant difference
